Reference: ChEMBL document CHEMBL1142498 (J Med Chem, 2008)

Assays:
[1] = biological target: Sodium-dependent serotonin transporter (Homo sapiens, UniProt P31645); format: cell-based, JAR
Description: Inhibition of 5-HT transporter-mediated [3H]5HT uptake in human Jar cells

Rattus norvegicus = species: Rattus norvegicus; assay: Displacement of [3H]prazosin from alpha1 adrenergic receptor in Sprague-Dawley rat cortical membrane at 1 uM
[2] = biological target: T1, 5-hydroxytryptamine receptor 1A (Homo sapiens, UniProt P08908)
T1 sequence (P08908 whole entry): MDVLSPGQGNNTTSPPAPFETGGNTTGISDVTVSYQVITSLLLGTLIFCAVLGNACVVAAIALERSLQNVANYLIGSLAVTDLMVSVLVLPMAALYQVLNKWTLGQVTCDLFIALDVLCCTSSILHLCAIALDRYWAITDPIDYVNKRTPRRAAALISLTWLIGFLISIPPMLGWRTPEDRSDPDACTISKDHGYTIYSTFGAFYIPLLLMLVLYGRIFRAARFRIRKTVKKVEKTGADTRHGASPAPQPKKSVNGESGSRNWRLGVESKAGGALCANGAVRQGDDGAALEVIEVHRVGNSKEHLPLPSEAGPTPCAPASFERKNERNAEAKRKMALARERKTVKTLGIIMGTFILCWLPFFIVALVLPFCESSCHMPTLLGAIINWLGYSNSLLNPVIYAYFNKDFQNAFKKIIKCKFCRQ
Description: Activity at human cloned 5HT1A receptor expressed in CHO cells assessed as blockade of 5-HT-stimulated [35S]GTPgammaS binding

[3] = biological target: Sodium-dependent serotonin transporter (Rattus norvegicus, UniProt P31652)
Chain of Sodium-dependent serotonin transporter (Rattus norvegicus, UniProt P31652) (P31652 whole entry): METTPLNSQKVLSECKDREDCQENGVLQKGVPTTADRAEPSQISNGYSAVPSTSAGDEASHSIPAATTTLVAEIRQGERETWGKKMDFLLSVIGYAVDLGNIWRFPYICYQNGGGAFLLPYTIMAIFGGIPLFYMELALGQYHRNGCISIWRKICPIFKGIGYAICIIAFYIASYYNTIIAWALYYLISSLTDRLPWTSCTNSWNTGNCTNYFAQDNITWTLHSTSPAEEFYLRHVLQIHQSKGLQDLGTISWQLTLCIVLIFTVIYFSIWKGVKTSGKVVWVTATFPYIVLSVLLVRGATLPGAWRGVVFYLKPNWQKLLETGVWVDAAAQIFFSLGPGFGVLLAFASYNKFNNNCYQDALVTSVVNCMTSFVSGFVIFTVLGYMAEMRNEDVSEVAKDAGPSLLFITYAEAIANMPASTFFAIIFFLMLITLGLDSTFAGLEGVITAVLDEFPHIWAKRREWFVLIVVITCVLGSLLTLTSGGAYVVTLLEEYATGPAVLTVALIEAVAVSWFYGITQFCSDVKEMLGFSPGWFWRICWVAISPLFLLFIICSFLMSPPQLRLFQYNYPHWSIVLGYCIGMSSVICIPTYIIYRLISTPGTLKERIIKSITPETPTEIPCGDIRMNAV
Description: Displacement of [3H]paroxetine from serotonin transporter in Sprague-Dawley rat frontal cortical membrane

Chain of Sodium-dependent serotonin transporter (Homo sapiens, UniProt P31645) (P31645 whole entry): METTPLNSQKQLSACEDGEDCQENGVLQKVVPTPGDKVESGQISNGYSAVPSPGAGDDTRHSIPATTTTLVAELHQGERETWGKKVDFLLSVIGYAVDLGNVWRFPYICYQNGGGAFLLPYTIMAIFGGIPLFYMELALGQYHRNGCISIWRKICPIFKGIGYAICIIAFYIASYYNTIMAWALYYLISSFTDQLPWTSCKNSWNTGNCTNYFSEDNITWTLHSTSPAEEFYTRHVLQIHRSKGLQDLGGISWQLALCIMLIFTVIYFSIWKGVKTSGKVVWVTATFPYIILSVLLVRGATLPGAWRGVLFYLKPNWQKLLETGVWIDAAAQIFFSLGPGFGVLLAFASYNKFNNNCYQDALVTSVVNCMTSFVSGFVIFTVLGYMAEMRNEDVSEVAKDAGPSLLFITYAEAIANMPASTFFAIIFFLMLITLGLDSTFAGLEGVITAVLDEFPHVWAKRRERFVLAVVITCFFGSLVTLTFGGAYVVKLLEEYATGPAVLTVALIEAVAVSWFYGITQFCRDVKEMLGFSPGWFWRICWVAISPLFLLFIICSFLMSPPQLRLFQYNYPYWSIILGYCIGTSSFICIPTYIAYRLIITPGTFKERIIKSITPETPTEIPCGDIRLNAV

| SMILES | IC50 [1] [nM] | Activity (Rattus norvegicus) [%] | also measured |
| --- | --- | --- | --- |
| CCCN(CCCc1c[nH]c2ccc(F)cc12)[C@@H]1COc2c(F)ccc(OC)c2C1 | 452 | – | – |
| NC(=O)c1ccc(F)c2c1C[C@@H](N(CC1CC1)CC1CCc3[nH]c4ccc(F)cc4c3C1)CO2 (stereo in doubt; 59a) [listing 1 of 2 here] | – | 3 | – |
| NC(=O)c1ccc(F)c2c1C[C@@H](N(CC1CC1)CC1CCc3[nH]c4ccc(F)cc4c3C1)CO2 (stereo in doubt; 59b) [listing 1 of 2 here] | – | 22 | – |
| NC(=O)c1ccc(F)c2c1C[C@@H](NCC1CCc3[nH]c4ccc(F)cc4c3C1)CO2 (stereo in doubt; 57a) [listing 1 of 2 here] | 291 | – | – |
| CCCN(CC1CCc2[nH]c3ccc(F)cc3c2C1)[C@H]1COc2c(F)ccc(C(N)=O)c2C1 (single isomer, unassigned; (+)) [listing 1 of 2 here] | – | – | IC50 ([1]; jar): > 1000 nM |
| NC(=O)c1ccc(Cl)c2c1CC(N(CCCc1c[nH]c3ccc(F)cc13)C1CCC1)CO2 (single isomer, unassigned; (-)) | – | 22 | – |
| NC(=O)c1ccc(F)c2c1CC(N(CCCc1c[nH]c3c(Cl)cccc13)C1CCC1)CO2 (stereo not drawn) | > 1000 | 29 | IC50 [2]: > 1000 nM |
| CCCN(CCCc1c[nH]c2ccc(F)cc12)[C@H]1COc2c(F)ccc(C(N)=O)c2C1 | – | – | IC50 [2]: 405 nM |
| CCCN(CC1CCc2[nH]c3ccc(F)cc3c2C1)[C@H]1COc2c(F)ccc(C(N)=O)c2C1 (stereo in doubt; 58a) | – | 5 | – |
| NC(=O)c1ccc(F)c2c1C[C@@H](N(CC1CC1)CC1CCc3[nH]c4ccc(F)cc4c3C1)CO2 (stereo in doubt; 59b) [listing 2 of 2 here] | – | – | IC50 ([1]; jar): > 1000 nM |
| NC(=O)c1cccc2c1CC(N(CCCc1c[nH]c3ccc(F)cc13)C1CCC1)CO2 (stereo in doubt; (+)-35e) [listing 1 of 2 here] | – | 6 | – |
| COC(=O)c1ccc(F)c2c1CC(N(CCCc1c[nH]c3ccc(F)cc13)C1CCC1)CO2 (stereo not drawn) | 1860 | – | – |
| NC(=O)c1ccc(F)c2c1C[C@@H](NCC1CCc3[nH]c4ccc(F)cc4c3C1)CO2 (stereo in doubt; 57a) [listing 2 of 2 here] | – | 23 | – |
| COc1cccc2c1CC(N(CCCc1c[nH]c3ccc(F)cc13)C1CCC1)CO2 (stereo not drawn) | – | 15 | IC50 [2]: > 2000 nM |
| NC(=O)c1cccc2c1CC(N(CCCc1c[nH]c3ccc(F)cc13)C1CCC1)CO2 (stereo in doubt; (+)-35e) [listing 2 of 2 here] | 28.3 | – | – |
| NC(=O)c1cccc2c1CC(N(CCCc1c[nH]c3ccc(F)cc13)C1CCC1)CO2 (single isomer, unassigned; (-)) | – | 10 | – |
| NC(=O)c1ccc(F)c2c1C[C@@H](NCC1CCc3[nH]c4ccc(F)cc4c3C1)CO2 (stereo in doubt; 57b) | > 1000 | – | – |
| COc1cccc2c1C[C@@H](N(CCCc1c[nH]c3ccc(F)cc13)C1CCC1)CO2 | – | 15 | – |
| NC(=O)c1cccc2c1CC(N(CCCc1c[nH]c3ccc(F)cc13)C1CCC1)CO2 (stereo in doubt; 35e) | 114 | – | Ki [3]: 9.55 nM |
| CCCN(CCCc1c[nH]c2ccc(F)cc12)[C@H]1COc2c(F)ccc(OC)c2C1 | 379 | 50 | – |
| NC(=O)c1ccc(F)c2c1C[C@@H](N(CC1CC1)CC1CCc3[nH]c4ccc(F)cc4c3C1)CO2 (stereo in doubt; 59a) [listing 2 of 2 here] | > 1000 | – | IC50 [2]: > 1000 nM |
| CCCN(CC1CCc2[nH]c3ccc(F)cc3c2C1)[C@H]1COc2c(F)ccc(C(N)=O)c2C1 (single isomer, unassigned; (+)) [listing 2 of 2 here] | – | 15 | – |
| CN(C)C(=O)c1ccc(F)c2c1CC(N(CCCc1c[nH]c3ccc(F)cc13)C1CCC1)CO2 (stereo not drawn) | 218 | – | IC50 [2]: > 2000 nM |

Further lines, with some results ahead:

| IC50 [1] [nM] | Activity (Rattus norvegicus) [%] | SMILES | also measured |
| --- | --- | --- | --- |
| 435 | 39 | CCCN(CCCCn1ccc2cccc(F)c21)C1COc2c(F)ccc(C(N)=O)c2C1 (stereo not drawn) | – |
| 225 | – | NC(=O)c1ccc(F)c2c1CC(N(CCCc1c[nH]c3c(F)cc(F)cc13)C1CCC1)CO2 (single isomer, unassigned; (+)) [listing 1 of 2 here] | IC50 [2]: > 1000 nM |
| > 1000 | – | NC(=O)c1ccc(F)c2c1CC(N(CCCCn1ccc3cc(F)ccc31)CC1CC1)CO2 (stereo not drawn) | – |
| – | 15 | CC(CCc1c[nH]c2ccc(F)cc12)N(CC1CC1)C1COc2c(F)ccc(C(N)=O)c2C1 (single isomer, unassigned; (-)) [listing 1 of 2 here] | – |
| > 1000 | – | NC(=O)c1ccc(F)c2c1CC(N(CCCCn1ccc3cc(F)ccc31)C1CCC1)CO2 (stereo not drawn) | IC50 [2]: > 1000 nM |
| > 1000 | – | CCCN(CCCCn1ccc2cc(F)ccc21)C1COc2c(F)ccc(C(N)=O)c2C1 (stereo not drawn) | – |
| > 1000 | 14 | NC(=O)c1ccc(F)c2c1CC(N(CCCCn1ccc3cccc(F)c31)C1CCC1)CO2 (stereo not drawn) | IC50 [2]: > 1000 nM |
| 32.7 | 21 | CCCNC(=O)c1ccc(F)c2c1CC(N(CCCc1c[nH]c3ccc(F)cc13)C1CCC1)CO2 (stereo not drawn) | Ki [3]: 7.96 nM |
| > 1000 | 18 | NC(=O)c1ccc(F)c2c1CC(N(CCCCn1ccc3c(F)cccc31)CC1CC1)CO2 (stereo not drawn) | IC50 [2]: > 1000 nM |
| – | 46 | CCCN(CCCc1c[nH]c2ccc(F)cc12)[C@@H]1COc2c(F)ccc(C(N)=O)c2C1 | – |
| 24.3 | – | CCCN(CCCc1c[nH]c2ccc(F)cc12)C1COc2c(F)ccc(C(=O)NC)c2C1 (stereo not drawn) | Ki [3]: 2.4 nM |
| 899 | 30 | NC(=O)c1ccc(F)c2c1CC(N(CCCc1c[nH]c3cc(F)ccc13)C1CCC1)CO2 (stereo not drawn) | – |
| 776 | 15 | CCCN(CCCCn1ccc2ccc(F)cc21)C1COc2c(F)ccc(C(N)=O)c2C1 (stereo not drawn) | – |
| 162 | – | CC(CCc1c[nH]c2ccc(F)cc12)N(CC1CC1)C1COc2c(F)ccc(C(N)=O)c2C1 (single isomer, unassigned; (+)) [listing 1 of 2 here] | – |
| – | 7 | CC(CCc1c[nH]c2ccc(F)cc12)N(CC1CC1)C1COc2c(F)ccc(C(N)=O)c2C1 (single isomer, unassigned; (+)) [listing 2 of 2 here] | – |
| > 1000 | 23 | CCCN(CCCCn1ccc2c(F)cccc21)C1COc2c(F)ccc(C(N)=O)c2C1 (stereo not drawn) | – |
| 138 | 27 | NC(=O)c1ccc(F)c2c1CC(N(CCCCn1ccc3cccc(F)c31)CC1CC1)CO2 (stereo not drawn) | – |
| – | 16 | NC(=O)c1ccc(F)c2c1CC(N(CCCc1c[nH]c3ccc(F)cc13)C1CCC1)CO2 (stereo not drawn) | – |
| 193 | – | CC(CCc1c[nH]c2ccc(F)cc12)N(CC1CC1)C1COc2c(F)ccc(C(N)=O)c2C1 (single isomer, unassigned; (-)) [listing 2 of 2 here] | IC50 [2]: 333 nM |
| – | 5 | NC(=O)c1ccc(F)c2c1CC(N(CCCc1c[nH]c3c(F)cc(F)cc13)C1CCC1)CO2 (single isomer, unassigned; (+)) [listing 2 of 2 here] | – |
| 103 | 5 | NC(=O)c1ccc(F)c2c1CC(N(CCCCn1ccc3c(F)cccc31)C1CCC1)CO2 (stereo not drawn) | – |
| – | 27 | N#Cc1ccc2[nH]cc(CCCN(C3CCC3)C3COc4c(F)ccc(C(N)=O)c4C3)c2c1 (single isomer, unassigned; (+)) | – |
| – | 21 | NC(=O)c1ccc(F)c2c1C[C@@H](N(CCCc1c[nH]c3ccc(F)cc13)C1CCC1)CO2 | – |
| > 1000 | 7 | NC(=O)c1ccc(F)c2c1CC(N(CCCCn1ccc3ccc(F)cc31)C1CCC1)CO2 (stereo not drawn) | – |
| 71.6 | – | NC(=O)c1ccc(F)c2c1CC(N(CCCc1c[nH]c3c(F)cc(F)cc13)C1CCC1)CO2 (single isomer, unassigned; (-)) | IC50 [2]: 206 nM |
| > 1000 | – | NC(=O)c1ccc(F)c2c1CC(N(CCCCn1ccc3ccc(F)cc31)CC1CC1)CO2 (stereo not drawn) | Ki [3]: 9.96 nM |
| 612 | 20 | NC(=O)c1ccc(F)c2c1CC(N(CCCc1c[nH]c3ccc(Cl)cc13)C1CCC1)CO2 (stereo not drawn) | – |
| – | 19 | N#Cc1ccc2[nH]cc(CCCN(C3CCC3)C3COc4c(F)ccc(C(N)=O)c4C3)c2c1 (single isomer, unassigned; (-)) | – |
